Results from US20180267025A1, “CANCER ANALYSIS SYSTEM” (Xcell Biosciences, Inc., priority 2013, published 2018).

Test system: single cells
Assay: chemosensitivity assay on single cells (live-cell imaging, FIG. 10)
Assay type: cell-based
Conditions: single cell imaged before, upon addition, and 2 minutes and 5 minutes after Y-27632 treatment
From the text: FIG. 10 depicts a chemosensitivity assay conducted on single cells. Target cell subpopulations can be used for personalized medicine. In the instance of CTCs and CSCs, cells can be used for chemosensitivity testing on whereby standard and exploratory chemotherapy regimens can be tested on cultured CTCs and determination of the effects of chemotherapy drugs on CTCs, including cell viability and cell division rates measurement to determine the efficacy of a given drug. An example of how a chemosensitivity assay can be applied is depicted in FIG. 10. […] In this example, Rho Kinase inhibitor, Y-27632 was used (Ishizaki et al. 2000 Pharmacological Properties of Y-27632, a specific inhibitor of rho-associated kinases. Mol Pharmacol. 57(5):976-83). […] The plasma membrane of the cell retracts upon drug treatment after 2 minutes 1015 and 5 minutes 1020.

C[C@@H](N)[C@H]1CC[C@H](C(=O)Nc2ccncc2)CC1 [Y-27632]
effect on cell adhesions and plasma membrane of a single cell upon drug treatment: loss of adhesions and retraction of the plasma membrane
